Read-outs that look alike come from different tables or passages of the source.
Columns and labels:
[1] = biological target: T1, murine AhR (Mus musculus, UniProt P30561); assay: Competitive radio-ligand ([3H]-TCDD) AhR binding assay, cytosols from Hepa1c1c7 cells; conditions: Table 1 summary class
T1 sequence (P30561 10-805): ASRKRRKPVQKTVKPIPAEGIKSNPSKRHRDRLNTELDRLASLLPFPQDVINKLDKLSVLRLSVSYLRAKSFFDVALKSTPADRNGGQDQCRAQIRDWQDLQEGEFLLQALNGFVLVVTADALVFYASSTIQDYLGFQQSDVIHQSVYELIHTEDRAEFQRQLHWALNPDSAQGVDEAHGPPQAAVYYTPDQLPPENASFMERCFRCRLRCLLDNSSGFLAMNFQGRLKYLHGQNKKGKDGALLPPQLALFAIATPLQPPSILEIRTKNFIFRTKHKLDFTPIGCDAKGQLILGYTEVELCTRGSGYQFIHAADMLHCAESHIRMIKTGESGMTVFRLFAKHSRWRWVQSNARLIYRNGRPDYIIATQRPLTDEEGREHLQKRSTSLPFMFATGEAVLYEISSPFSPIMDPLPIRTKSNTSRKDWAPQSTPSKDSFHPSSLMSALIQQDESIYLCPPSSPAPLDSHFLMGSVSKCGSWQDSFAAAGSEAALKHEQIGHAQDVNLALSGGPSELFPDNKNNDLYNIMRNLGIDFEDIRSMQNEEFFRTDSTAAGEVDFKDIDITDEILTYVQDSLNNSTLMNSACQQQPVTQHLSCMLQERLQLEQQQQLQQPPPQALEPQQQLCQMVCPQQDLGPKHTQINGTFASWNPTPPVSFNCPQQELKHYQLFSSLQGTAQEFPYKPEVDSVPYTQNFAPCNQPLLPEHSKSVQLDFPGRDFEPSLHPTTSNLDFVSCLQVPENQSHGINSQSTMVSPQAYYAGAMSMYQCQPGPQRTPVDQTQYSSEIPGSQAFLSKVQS
Protocol: Figure 2 Competitive radio-ligand binding assay. Cytosols from Hepa1c1c7 cells were incubated with vehicle (negative control; 0.1% V/V), FICZ (positive control; 0.01 nM – 10 nM), TCDF (non-specific binding; 200 nM) and increasing doses of MICT in the presence of 2 nM [^3H]-TCDD. The specific binding of [^3H]-TCDD was determined as a difference between total and non-specific (200 nM; TCDF) reactions (value for vehicle DMSO; 0.1% V/V = corresponds to specific binding of [^3H]-TCDD = 100%). At least two independent experiments were performed and the incubations were done in triplicates in each experiment (technical replicates).
Ligand binding assay was performed using cytosolic protein extracts from murine Hepa1c1c7 cells as described. Briefly, aliquots of protein (2 mg/mL) were incubated at the room temperature for two (2) h with 2 nM [^3H]-TCDD in the presence of DMSO (vehicle control), FICZ (positive control), 200 nM TCDF (non-specific binding) or increasing concentration of MICT. After the incubation, the hydroxyapatite slurry was added to the samples and the suspension was incubated on ice and washed three times with HEGT buffer. The hydroxyapatite pellet was re-suspended in scintillation cocktail, and radioactivity was determined in a liquid scintillation counter. The specific binding of [^3H]-TCDD was determined by subtracting the radioactivity of non-specific reaction (TCDF) from total radioactivity. The values of IC50 were calculated where appropriate.

[2] = test system: CYP1A1 mRNA; assay: CYP1A1 mRNA (qRT-PCR) in wild-type and AhR-knockout HT-29 cells; assay type: cell-based, human
Protocol: Figure 4 Effects of MICT on the induction of CYP1A1 mRNA in human hepatic and intestinal cells. Cultured cells were incubated for 24 h with the vehicle (DMSO; 0.1% v/v) and tested MICT in the presence or absence of TCDD (10 nM). RT-PCR determined the level of CYP1A1 mRNA, and the data were normalized per GAPDH mRNA level. […] (A,B) Experiments in three consecutive passages of human colon adenocarcinoma cell line LS180 in the absence (A) and the presence (B) of 10 nM TCDD. The bar graphs show the percentage of maximal induction attained by TCDD and are expressed as the mean ± SD. (C) Experiments in three consecutive passages of wild-type (AhR^+/^+) and AhR-knockout (AhR^−/^−) HT-29 cells. […] (D) Primary human hepatocytes from three different donors (LH79, Hep2201020, and Hep2201021).
CRISPR/Cas9 knockout of the AhR in HT-29 cells: A CRISPR/Cas9 expression vector with GFP, pSpCas9(BB)-2A-GFP (PX458) (#48138; Addgene, Cambridge, MA, USA) was used for integration of the gRNA complementary to exon 2 of the AHR gene. 4 × 10^5 cells were seeded in a 6-well plate and transfected (at 60–70% confluence) with a mixture of vector DNA and Lipofectamine™ 3000 (Life Technologies) according to the manufacturer’s instructions. The transfected cells positive for GFP signal were sorted using BD Aria II Sorp (Becton Dickinson, Franklin Lakes, NJ, USA), in a single cell suspension into a 96-well plate. DNA isolation was performed by a QIAamp DNA Mini Kit (Qiagen, Hilden, Germany) according to the manufacturer’s instructions. The function of the CRISPR/Cas9 system was verified by the SURVEYOR mutation detection kit (Integrated DNA Technologies, Leuven, Belgium) according to the manufacturer’s instructions. The positive clones were checked for AhR expression by Western Blotting. PCR amplification products were purified using the QIAquick PCR Purification Kit (Qiagen) and integrated into a plasmid vector (pGEM_T Easy Vector Systems, Promega), and E.coli DHP α (MAX Efficiency DH5a Competent Cells, Thermo Fisher; Waltham, MA, USA) were transformed according to manufacturer’s instructions, DNA was isolated, and deletions in the AhR gene sequences were verified by sequencing (Mix2seq, Eurofins Genomic, Luxembourg).
Total RNA was isolated using TRI Reagent® (Sigma Aldrich, Prague, Czech Republic). cDNA was synthesized using M-MuLV reverse transcriptase (New England Biolabs, Ipswich, MA, USA). The reverse transcription was performed at 42 °C for 60 min using Random Primers 6 (New England Biolabs, Ipswich, MA, USA) and diluted in a 1:4 ratio by PCR-grade water. The quantitative reverse transcriptase-polymerase chain reaction (qRT-PCR) was performed on the Lightcycler 480 II using the LightCycler ® 480 Probes Master (Roche Diagnostic Corporation, Prague, Czech Republic). The levels of CYP1A1 and GAPDH mRNAs were determined using the Universal Probe Library probes (UPL; Roche Diagnostic Corporation, Prague, Czech Republic) in combination with specific primers, using a protocol described elsewhere. All measurements were performed in triplicates, and the gene expression was normalized to glyceraldehyde-3-phosphate dehydrogenase (GAPDH) as a house-keeping gene. The data were processed using the delta-delta Ct method and expressed as a fold induction over the negative control (DMSO) or as a percentage of the positive control (maximal induction by TCDD).

[3] = colon HT-29 cells, wild-type, 24 h

SMILES | Affinity (IC50) [1] | induction of CYP1A1 mRNA [2, 3] | induction of CYP1A1 mRNA [2] | CYP1A1 induction ([2]; AhR knock-out HT-29 variant, 24 h)
Cc1c[nH]c2ccccc12 [3MI, skatole] | low | weaker inducers |  | 
NCCc1c[nH]c2ccccc12 [TA, tryptamine] | no | weaker inducers |  | 
c1ccc2[nH]ccc2c1 [IND, indole] | very low |  | weaker inducers | 
O=C(O)/C=C/c1c[nH]c2ccccc12 [IAC, indole-3-acrylate] | very low | strong induction |  | 
NC(=O)Cc1c[nH]c2ccccc12 [IAD, indole-3-acetamide] | low | strong induction |  | 
O=C(O)C(O)Cc1c[nH]c2ccccc12 (stereo not shown) [ILA, indole-3-lactate] | no |  |  | 
O=Cc1c[nH]c2ccccc12 [IA, indole-3-aldehyde] | no |  |  | 
O=C(O)C(=O)Cc1c[nH]c2ccccc12 [IPY, indole-3-pyruvate] | low | strong induction |  | 
OCCc1c[nH]c2ccccc12 [IET, indole-3-ethanol] | very low |  |  | 
Clc1cc2c(cc1Cl)Oc1cc(Cl)c(Cl)cc1O2 [TCDD, 2,3,7,8-tetrachlorodibenzo-p-dioxin, reference compound] |  |  |  | nullified
